Results taken from PubChem BioAssay AID1963966 (Molecular Pharmacology Branch, DTP, NCI, 2024).

System: 935938-334-R-J1-PDC spheroids with HUVEC/MSC, viability
Experiment: Anticancer human tumor 935938-334-R-J1-PDC patient-derived small intestine adenocarcinoma cell line growth inhibition [PI3K]
Details: for IC50: curve of first compound; for viability, T/C: stronger effect = lower value
How it was run: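 Tumor cells were combined with HUVEC and MSCs into spheroids, then dosed with PI3K-inhibitor combinations over half-log ranges capped near clinical Cmax or 10 microM.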
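Note: compound exposure lasted seven days before viability was read.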
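Throughout, for viability, T/C: percent of vehicle DMSO treated spheroid viability so 100% = untreated.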

CC(=O)c1c(C)c2cnc(Nc3ccc(N4CCNCC4)cn3)nc2n(C2CCCC2)c1=O + CC(Nc1ncnc2nc[nH]c12)c1cc2cccc(Cl)c2c(=O)n1-c1ccccc1
IC50 (second compound 0.0316 µM): > 100 nM
IC50 (second compound 0.1 µM): > 100 nM
IC50 (second compound 0.316 µM): > 100 nM
IC50 (second compound 1 µM): > 100 nM
IC50 (second compound 3.16 µM): 79.4 nM
IC50 (second compound 10 µM): 49 nM
viability, T/C (second compound 0.0316 µM, first compound 0.000316 µM): 105%
viability, T/C (second compound 0.0316 µM, first compound 0.001 µM): 108%
viability, T/C (second compound 0.0316 µM, first compound 0.00316 µM): 99%
viability, T/C (second compound 0.0316 µM, first compound 0.01 µM): 97.2%
viability, T/C (second compound 0.0316 µM, first compound 0.0316 µM): 90%
viability, T/C (second compound 0.0316 µM, first compound 0.1 µM): 73%
viability, T/C (second compound 0.1 µM, first compound 0.000316 µM): 103%
viability, T/C (second compound 0.1 µM, first compound 0.001 µM): 103%
viability, T/C (second compound 0.1 µM, first compound 0.00316 µM): 93%
viability, T/C (second compound 0.1 µM, first compound 0.01 µM): 69.5%
viability, T/C (second compound 0.1 µM, first compound 0.0316 µM): 91.5%
viability, T/C (second compound 0.1 µM, first compound 0.1 µM): 74.6%
viability, T/C (second compound 0.316 µM, first compound 0.000316 µM): 68.6%
viability, T/C (second compound 0.316 µM, first compound 0.001 µM): 91.2%
viability, T/C (second compound 0.316 µM, first compound 0.00316 µM): 105%
viability, T/C (second compound 0.316 µM, first compound 0.01 µM): 89.7%
viability, T/C (second compound 0.316 µM, first compound 0.0316 µM): 71.6%
viability, T/C (second compound 0.316 µM, first compound 0.1 µM): 64.9%
viability, T/C (second compound 1 µM, first compound 0.000316 µM): 99.8%
viability, T/C (second compound 1 µM, first compound 0.001 µM): 109%
viability, T/C (second compound 1 µM, first compound 0.00316 µM): 93%
viability, T/C (second compound 1 µM, first compound 0.01 µM): 88.5%
viability, T/C (second compound 1 µM, first compound 0.0316 µM): 69.5%
viability, T/C (second compound 1 µM, first compound 0.1 µM): 53.4%
viability, T/C (second compound 3.16 µM, first compound 0.000316 µM): 96.7%
viability, T/C (second compound 3.16 µM, first compound 0.001 µM): 111%
viability, T/C (second compound 3.16 µM, first compound 0.00316 µM): 97.6%
viability, T/C (second compound 3.16 µM, first compound 0.01 µM): 86.3%
viability, T/C (second compound 3.16 µM, first compound 0.0316 µM): 73.5%
viability, T/C (second compound 3.16 µM, first compound 0.1 µM): 44.1%
viability, T/C (second compound 10 µM, first compound 0.000316 µM): 87.1%
viability, T/C (second compound 10 µM, first compound 0.001 µM): 83.7%
viability, T/C (second compound 10 µM, first compound 0.00316 µM): 78.4%
viability, T/C (second compound 10 µM, first compound 0.01 µM): 67.1%
viability, T/C (second compound 10 µM, first compound 0.0316 µM): 56.7%
viability, T/C (second compound 10 µM, first compound 0.1 µM): 40.2%
